Assay results: patent US6875758B2, “Method of treating hyperlipidemic and hyperglycemic conditions in mammals using pregnadienols and pregnadienones” (Council of Scientific & Industrial Research, priority 1999, dated 2005)

Columns and labels:
[1] = test system: endometrial proliferation; experiment: Clauberg assay, endometrial proliferation on McPhail scale; type: in vivo; settings: 50 mg/kg
Description: The progestational activity was also tested in vivo by Clauberg assay method. The degree of endometrial proliferation was estimated on the McPhail scale where 3′ or 4′ was considered as a full progestational effect.

Progestin Receptor = target: T1, Progestin Receptor (Homo sapiens, UniProt P06401); settings: cited from earlier work; for Progestin Receptor Binding Affinity: relative binding affinity
T1 sequence (P06401 1-933): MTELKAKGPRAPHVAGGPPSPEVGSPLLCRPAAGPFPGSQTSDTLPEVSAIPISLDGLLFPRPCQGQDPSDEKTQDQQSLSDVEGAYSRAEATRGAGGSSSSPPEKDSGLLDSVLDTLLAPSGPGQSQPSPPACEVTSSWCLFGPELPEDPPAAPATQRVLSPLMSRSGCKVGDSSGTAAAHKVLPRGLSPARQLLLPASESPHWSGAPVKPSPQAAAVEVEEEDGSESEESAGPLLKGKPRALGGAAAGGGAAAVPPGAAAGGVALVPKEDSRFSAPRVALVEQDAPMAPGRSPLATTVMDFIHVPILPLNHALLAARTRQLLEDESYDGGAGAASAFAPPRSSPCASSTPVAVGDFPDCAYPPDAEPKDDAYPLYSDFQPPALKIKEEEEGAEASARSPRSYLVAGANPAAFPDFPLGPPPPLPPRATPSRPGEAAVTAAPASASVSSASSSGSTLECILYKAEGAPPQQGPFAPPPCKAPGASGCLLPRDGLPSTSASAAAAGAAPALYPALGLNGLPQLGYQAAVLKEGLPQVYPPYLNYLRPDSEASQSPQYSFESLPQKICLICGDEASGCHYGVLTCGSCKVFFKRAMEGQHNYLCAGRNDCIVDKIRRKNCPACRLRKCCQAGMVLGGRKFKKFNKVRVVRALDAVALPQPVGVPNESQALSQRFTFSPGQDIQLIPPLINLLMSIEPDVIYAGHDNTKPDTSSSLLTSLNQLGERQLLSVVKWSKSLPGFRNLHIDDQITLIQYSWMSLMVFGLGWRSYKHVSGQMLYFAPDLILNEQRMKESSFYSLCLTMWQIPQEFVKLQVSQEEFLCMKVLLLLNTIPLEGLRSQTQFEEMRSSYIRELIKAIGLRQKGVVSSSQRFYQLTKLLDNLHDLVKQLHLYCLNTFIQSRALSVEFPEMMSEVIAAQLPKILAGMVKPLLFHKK

Androgen Receptor = target: T2, Androgen Receptor (Homo sapiens, UniProt P10275); settings: relative binding affinity; cited from earlier work
T2 sequence (P10275 1-920): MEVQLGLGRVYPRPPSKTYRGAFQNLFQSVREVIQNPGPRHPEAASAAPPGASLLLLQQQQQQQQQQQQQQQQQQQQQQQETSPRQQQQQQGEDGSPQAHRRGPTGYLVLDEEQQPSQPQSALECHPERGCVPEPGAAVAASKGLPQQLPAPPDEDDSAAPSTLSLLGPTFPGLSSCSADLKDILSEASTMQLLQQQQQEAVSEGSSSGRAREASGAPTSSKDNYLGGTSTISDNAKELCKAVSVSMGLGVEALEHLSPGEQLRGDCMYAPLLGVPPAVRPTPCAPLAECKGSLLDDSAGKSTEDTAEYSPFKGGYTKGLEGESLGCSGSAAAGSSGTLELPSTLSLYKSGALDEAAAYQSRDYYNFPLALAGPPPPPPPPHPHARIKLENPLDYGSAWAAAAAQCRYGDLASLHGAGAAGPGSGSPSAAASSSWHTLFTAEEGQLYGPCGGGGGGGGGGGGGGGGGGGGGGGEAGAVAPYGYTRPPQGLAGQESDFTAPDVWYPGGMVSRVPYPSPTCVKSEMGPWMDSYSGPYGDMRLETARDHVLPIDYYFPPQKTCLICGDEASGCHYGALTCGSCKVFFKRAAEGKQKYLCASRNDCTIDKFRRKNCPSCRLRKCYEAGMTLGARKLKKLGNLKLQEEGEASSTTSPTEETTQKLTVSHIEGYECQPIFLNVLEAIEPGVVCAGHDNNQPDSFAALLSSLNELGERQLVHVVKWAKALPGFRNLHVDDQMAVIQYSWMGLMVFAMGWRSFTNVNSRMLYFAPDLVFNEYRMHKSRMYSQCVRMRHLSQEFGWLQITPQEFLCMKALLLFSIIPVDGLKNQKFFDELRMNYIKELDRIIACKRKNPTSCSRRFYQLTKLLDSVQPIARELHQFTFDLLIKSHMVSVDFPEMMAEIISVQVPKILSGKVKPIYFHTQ

Triton treated rats = experiment: Cholesterol lowering in Triton treated rats; type: in vivo, Charles Foster rats; settings: Rattus norvegicus, ip; 200 mg/kg i.p.; read-out: % Change S. Chol.
Text: The primary hypolipidemic effect of these compounds was established in triton induced hyperlipidemia in Charles Foster rats. […] The cholesterol lowering effect of some representative compounds of pregrenadienols and pregrenadienones as compared to clofibrate and gugulsterone in triton treated Charles Foster rats is described in Table-2.

normal rats = experiment: Hypolipidemic activity in normal rats; type: in vivo; settings: 50 mg/kg
Description: In normal rats, 3β-hydroxypregna-5,16-dien-20one (2), at 50 mg/kg produced a significant lowering of serum cholesterol and triglycerides as describe in Table-3 below.

SMILES: CC(=O)[C@H]1CC[C@H]2[C@@H]3CCC4=CC(=O)CC[C@]4(C)[C@H]3CC[C@]12C [Progesterone, reference compound]
- progestational activity [1]: marked progestational activity

SMILES: C#C[C@]1(O)CC[C@H]2[C@@H]3CCC4=CC(=O)CC[C@@H]4[C@H]3C(=C)C[C@@]21CC [3-Keto-desogestrel]
- Progestin Receptor Binding Affinity (Progestin Receptor): 8.6

SMILES: C#C[C@]1(O)C=C[C@H]2[C@@H]3CCC4=CC(=O)CC[C@@H]4[C@H]3CC[C@@]21CC [Gestodene]
- Androgen Receptor Binding Affinity (Androgen Receptor): 0.154
- Selectivity Index (A/P ratio) (Progestin Receptor; androgen vs progestin receptor): 28
- Progestin Receptor Binding Affinity (Progestin Receptor): 9.21

SMILES: CCOC(=O)C(C)(C)Oc1ccc(Cl)cc1 [Compound 10, Clofibrate, reference compound]
- change in vivo at 200 mg/kg (Triton treated rats): -15%
- Serum Cholesterol (normal rats; 0 Days): 82.3 ± 3.3 mg %
- Serum Cholesterol (normal rats; 30 Days): 53.2 ± 2.0 mg %
- Serum Cholesterol % Fall (normal rats; 30 Days): 36%
- Serum Triglycerides (normal rats; 30 Days): 47.3 ± 3.2 mg %
- Serum Triglycerides % Fall compared to control (normal rats; 30 Days): 28%
